# How the values were obtained:
# PC-3 cells = assay: antiproliferation assay, PC-3; type: cell-based; conditions: Homo sapiens
# Procedure: (§1) For the antiproliferation assay, NCI-H460 (large cell lung carcinoma) or M14 (amelanotic melanoma) cells were grown in RPMI-1640 with 10% FBS supplemented with L-glutamine and HEPES. Cells were seeded into 96-well plates at 5×10^2 to 5×10^4 cells/well and allowed to adhere overnight; the medium was then removed. A stock solution of test compound in DMSO was diluted in medium to generate a series of working solutions. Aliquots (100 μl) of the working solutions were then added to the appropriate test wells to expose cells to the final concentrations of compound in a total volume of 100 μl. Seven different concentrations were tested, with 2-5 wells per concentration. Camptothecin was used as a positive control; wells containing vehicle without compound were used as negative controls. Plates were kept for 72 h in a 37° C., 5% CO2 incubator. After incubation, viable cells were detected with the CELLTITER 96 AQueous Non-Radioactive Cell Proliferation Assay (Promega), and IC50 values were determined using GraphPad Prism 5 software.
# (§2) Antiproliferation of several of the active compounds was tested against additional cell lines.
# SK-Mel-2 cells = assay: antiproliferation assay, SK-Mel-2; type: cell-based; conditions: Homo sapiens
# Procedure: as §1, §2
# [1] = tested on: NCI-H460 (large cell lung carcinoma) cells; assay: antiproliferation assay (72 h, CELLTITER 96), NCI-H460; type: cell-based, human; conditions: Homo sapiens, NCI-H460, Table 4; read-out: NCI-H460 IC50
# Method in brief: (§3)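 Human M14 melanoma and NCI-H460 lung carcinoma cells in RPMI-1640/10% FBS, seeded at 5×10^2–5×10^4 cells/well and adhered overnight, then exposed to seven compound concentrations for 72 h at 37 °C. Viable cells read by CellTiter 96 AQueous (MTS); IC50 = concentration giving 50% of maximal growth inhibition.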
# HCT-116 cells = assay: antiproliferation assay, HCT-116; type: cell-based; conditions: Homo sapiens
# Procedure: as §1, §2
# SK-Mel-5 cells = assay: antiproliferation assay, SK-Mel-5; type: cell-based; conditions: Homo sapiens
# Procedure: as §1, §2
# UACC-62 cells = assay: antiproliferation assay, UACC-62; type: cell-based; conditions: Homo sapiens
# Procedure: as §1, §2
# LOX-IMVI cells = assay: antiproliferation assay, LOX-IMVI; type: cell-based; conditions: Homo sapiens
# Procedure: as §1, §2
# U-87 MG cells = assay: antiproliferation assay, U-87 MG; type: cell-based; conditions: Homo sapiens
# Procedure: as §1, §2
# A549 cells = assay: antiproliferation assay, A549; type: cell-based; conditions: Homo sapiens
# Procedure: as §1, §2
# [2] = tested on: M14 (amelanotic melanoma) cells; assay: antiproliferation assay (72 h, CELLTITER 96), M14; type: cell-based, human; conditions: Homo sapiens; Table 4
# Method in brief: as §3
# NCI-H526 cells = assay: antiproliferation assay, NCI-H526; type: cell-based; conditions: Homo sapiens
# Procedure: as §1, §2
# NCI/ADR-RES cells = assay: antiproliferation assay, NCI/ADR-RES; type: cell-based; conditions: Homo sapiens
# Procedure: as §1, §2
# Compound 4 was tested for antiproliferation activity against several paclitaxel-resistant human cancer cell lines.
# NCI-H441 cells = assay: antiproliferation assay, NCI-H441; type: cell-based; conditions: Homo sapiens
# Procedure: as §1, §2
# NCI-H187 cells = assay: antiproliferation assay, NCI-H187; type: cell-based; conditions: Homo sapiens
# Procedure: as §1, §2
SMILES,IC50 (PC-3 cells) [nM],IC50 (SK-Mel-2 cells) [nM],IC50 [1] [nM],IC50 (HCT-116 cells) [nM],IC50 (SK-Mel-5 cells) [nM],IC50 (UACC-62 cells) [nM],IC50 (LOX-IMVI cells) [nM],IC50 (U-87 MG cells) [nM],IC50 (A549 cells) [nM],IC50 [2] [nM],IC50 (NCI-H526 cells) [nM],IC50 (NCI/ADR-RES cells) [nM],IC50 (NCI-H441 cells) [nM],IC50 (NCI-H187 cells) [nM]
"C=CC[C@H]1C[C@]2([C@H](C)Cc3ccc(OC)cc3)OCOC2=CC1=O [Compound 26, (6S,7aR)-6-allyl-7a-((R)-1-(4-methoxyphenyl)propan-2-yl)-7,7a-dihydrobenzo[d][1,3]dioxol-5(6H)-one]",66,110,75,22,34,96,150,100,110,81,–,–,–,–
"C=CC[C@H]1C[C@]2([C@@H](C)Cc3ccc(OC)c(O)c3)OCOC2=CC1=O [Compound 32, (6S,7aR)-6-allyl-7a-((S)-1-(3-hydroxy-4-methoxyphenyl)propan-2-yl)-7,7a-dihydrobenzo[d][1,3]dioxol-5(6H)-one]",–,–,83,13,–,–,12,–,–,7.9,79,38,140,46
